Experimental data: patent US9682060B2, “Small molecules that induce intrinsic pathway apoptosis” (The Board of Trustees of the University of Illinois, priority 2015, dated 2017)
Non-standard residues stand in square brackets, D forms with d. Residues, ends and D or L forms follow the SMILES beside them. *: point of attachment. Nle = CCCC[C@H](N)C(=O)O; Cbz = O=C(OCc1ccccc1)*; CH2Cl = ClC*

What was measured:
[1] = test system: U-937 cells; test: Mitochondrial permeability transition pore (MPTP) calcein-cobalt assay; type: cell-based, Human; conditions: calcein-cobalt quenching
Experimental: Mitochondrial Permeability Transition Pore (MPTP) Calcein-Cobalt Assay.
U-937 cells (1×10^6 cells/mL in HBSS) were loaded with calcein-AM (20 nM final concentration) for 45 minutes at 37° C. The cells were washed with HBSS and resuspended in RPMI and plated into a 24-well plate (1×10^6 cells in 1 mL). The cells were treated with Raptinal (10 μM) for 15, 30, 45, 60 and 90 minutes. Cobalt(II) chloride was added (10 μL of 80 mM stock in HBSS) to the cells 10 minutes prior to the end of the time points. The cells were pelleted and resuspended in HBSS (0.5 mL) and calcein fluorescence was measured by flow cytometry. As a positive control for MPTP, ionomycin and calcium were added to calcein-labeled cells in HBSS 10 minutes prior to analysis by flow cytometry.

[2] = biological target: Calpain/Cathepsin; conditions: cited from earlier work
[3] = biological target: Granzyme B (Homo sapiens, UniProt P10144); conditions: cited from earlier work
Chain of Granzyme B (P10144 21-247, species assumed): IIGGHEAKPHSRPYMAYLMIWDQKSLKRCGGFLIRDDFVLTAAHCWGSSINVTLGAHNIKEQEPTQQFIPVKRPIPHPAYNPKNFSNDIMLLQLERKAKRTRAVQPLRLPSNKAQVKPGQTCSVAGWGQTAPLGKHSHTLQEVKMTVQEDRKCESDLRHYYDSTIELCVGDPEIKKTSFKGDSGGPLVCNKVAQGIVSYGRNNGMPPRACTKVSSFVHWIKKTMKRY

C[C@H](CCC(=O)O)C[C@H](C)C[C@H](C)C(=O)/C=C(\O)[C@H](C)C[C@H](C)C/C=C/[C@@H](C)[C@@H](O)[C@@H](C)[C@@H](O)C[C@@H]1CC[C@@](C)([C@H]2CC[C@@](C)([C@@H](C)O)O2)O1 [lonomycin, ionomycin, reference compound]
mitochondrial permeability transition pore (MPTP) formation [1]: able to induce MPTP

CCCC[C@@H](C=O)NC(=O)[C@H](CC(C)C)NC(=O)[C@H](CC(C)C)NC(C)=O [Calpain/Cathepsin Inhibitor I] (Ac-Leu-Leu-[Nle]-aldehyde)
Ki [2]: 120 to 230 nM

CC(NC(=O)OCc1ccccc1)C(=O)NC(C)C(=O)NC(CC(=O)O)C(=O)CCl (stereo not drawn) [Granzyme B Inhibitor I] (Cbz-Ala-Ala-Asp-CH2Cl; configuration not given here)
Ki [3]: 300 nM
